For the experiment, the target named is T1, Human GPR119 (Homo sapiens, UniProt Q8TDV5).
T1 construct: host or cells: HEK293 (ATCC)
T1 sequence (Q8TDV5 1-335): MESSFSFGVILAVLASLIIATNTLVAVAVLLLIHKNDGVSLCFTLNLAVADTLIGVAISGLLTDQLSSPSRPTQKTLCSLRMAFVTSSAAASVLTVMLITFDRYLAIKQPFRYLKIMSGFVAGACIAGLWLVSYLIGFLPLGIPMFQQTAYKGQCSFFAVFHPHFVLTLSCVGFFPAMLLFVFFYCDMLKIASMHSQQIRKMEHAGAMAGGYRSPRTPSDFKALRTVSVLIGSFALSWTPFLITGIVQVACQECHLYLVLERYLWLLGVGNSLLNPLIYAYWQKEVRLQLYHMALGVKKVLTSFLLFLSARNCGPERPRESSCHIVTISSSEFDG
Briefly: Human GPR119 activation assay (cAMP, HTRF). As to conditions: 1 h, HEK293 cells transiently expressing human GPR119, relative to maximum effect of OEA, read-out: hGPR119 activation ability (cAMP assay) Relative Response % vs OEA; for Emax at 0.001 µM: 1 nM; for Emax at 0.01 µM: 10 nM. In kind it is cell-based. An excerpt: <Experimental Example 1>Human GPR119 activation assay
Human GPR119 was temporarily expressed on cells, thereby quantifying the amount of cyclic adenosine 3′,5′-monophosphate (cAMP) increased upon activating GPR119 by the compound of the present invention, using the product from Cysbio, by a method of HTRF (homogeneous time resolved fluorescence), and such quantification was used to refer to efficacy on GPR119 activation.
Human GPR119 expression vector (Origene) was overexpressed in […] renal epithelial cells (HEK293) (ATCC), and the cells were stabilized for 48 hours. With a solution of 11.1 mM glucose, 0.1% bovine serum albumin, and 0.5 mM IBMX (3-isobutyl-1-methylxanthine) which is a phosphodiesterase inhibitor being added to a KRBH (Krebs-Ringer Bicarbonate HEPES; Hou ZQ. et al., Mol Cell Endocrinol, 2008(291):71-78) buffer, the cells were pre-treated for 10 minutes. Thereafter, the cells were treated with the same solution containing a drug for 60 minutes, then the supernatant was removed, and the increase in cAMP in cells was quantified using a Cysbio cAMP HiRange kit.
As to the maximum efficacy of compounds tested, multiple concentration assessment for the compounds of the present invention was carried out, thereby assessing the relative activation level (%) to the maximum effect of oleoylethanolamide (OEA), an endogenous ligand of GPR119.
A general note: Time-resolved FRET reads energy transfer from a long-lived donor to a nearby acceptor.

Regarding `CCc1cnc(N2CCC(CCCOc3cc(F)c(C4=NCCO4)c(F)c3)CC2)nc1` [Example 1, 2-(4-(3-(1-(5-ethylpyrimidin-2-yl)piperidin-4-yl)propoxy)-2,6-difluorophenyl)-4,5-dihydrooxazole], the Emax at 0.001 µM turned out to be 50.7% and the Emax at 0.01 µM came to 116%.

For the compound `CCc1cnc(N2CCC(CCCOc3cc(F)c(C4=N[C@H](C)CO4)c(F)c3)CC2)nc1` [Example 2, (R)-2-(4-(3-(1-(5-ethylpyrimidin-2-yl)piperidin-4-yl)propoxy)-2,6-difluorophenyl)-4-methyl-4,5-dihydrooxazole], the Emax at 0.001 µM was determined as 34.8% and the Emax at 0.01 µM was determined as 113%.

As for `CCc1cnc(N2CCC(CCCOc3cc(F)c(C4=N[C@@H](C)CO4)c(F)c3)CC2)nc1` [Example 3, (S)-2-(4-(3-(1-(5-ethylpyrimidin-2-yl)piperidin-4-yl)propoxy)-2,6-difluorophenyl)-4-methyl-4,5-dihydrooxazole], the Emax at 0.001 µM stood at 192% and the Emax at 0.01 µM came to 47.8%.

As to `CCc1cnc(N2CCC(CCCOc3cc(F)c(C4=NCC(C)(C)O4)c(F)c3)CC2)nc1` [Example 6, 2-(4-(3-(1-(5-ethylpyrimidin-2-yl)piperidin-4-yl)propoxy)-2,6-difluorophenyl)-5,5-dimethyl-4,5-dihydrooxazole], the Emax at 0.001 µM was 33.5% and the Emax at 0.01 µM stood at 102%.

On to `CCc1cnc(N2CCC(CCCOc3cc(F)c(C4=NC[C@@H](CO)O4)c(F)c3)CC2)nc1` [Example 8, (S)-(2-(4-(3-(1-(5-ethylpyrimidin-2-yl)piperidin-4-yl)propoxy)-2,6-difluorophenyl)-4,5-dihydrooxazol-5-yl)methanol], for which the Emax at 0.001 µM is 144% and the Emax at 0.01 µM worked out at 393%.

Regarding `CC(C)Cc1nc(-c2cnc(N3CCC(CCCOc4cc(F)c(C5=NC[C@@H](C)O5)c(F)c4)CC3)nc2)no1` [Example 9, (R)-3-(2-(4-(3-(3,5-difluoro-4-(5-methyl-4,5-dihydrooxazol-2-yl)phenoxy)propyl)piperidin-1-yl)pyrimidin-5-yl)-5-isobuty-1,2,4-oxadiazole], the Emax at 0.001 µM was 97.1% and the Emax at 0.01 µM is 241%.

As for `CC(C)c1noc(N2CCC(CCCOc3cc(F)c(C4=N[C@H](C)CO4)c(F)c3)CC2)n1` [Example 10, (R)-5-(4-(3-(3,5-difluoro-4-(4-methyl-4,5-dihydrooxazol-2-yl)phenoxy)propyl)piperidin-1-yl)-3-isopropyl-1,2,4-oxadiazole], the Emax at 0.001 µM was 192% and the Emax at 0.01 µM came out at 266%.

For the compound `CCCc1nc(-c2c(F)cc(OCCCC3CCN(c4ncc(CC)cn4)CC3)cc2F)no1` [Example 14, 3-(4-(3-(1-(5-ethylpyrimidin-2-yl)piperidin-4-yl)propoxy)-2,6-difluorophenyl)-5-propyl-1,2,4-oxadiazole], the Emax at 0.001 µM worked out at 96% and the Emax at 0.01 µM turned out to be 131%.

In the case of `CCc1cnc(N2CCC(CCCOc3cc(F)c(-c4noc(C(C)(C)C)n4)c(F)c3)CC2)nc1` [Example 16, 5-(tert-butyl)-3-(4-(3-(1-(5-ethylpyrimidin-2-yl)piperidin-4-yl)propoxy)-2,6-difluorophenyl)-1,2,4-oxadiazole], the Emax at 0.001 µM amounted to 108% and the Emax at 0.01 µM worked out at 321%.

As to `CCc1cnc(N2CCC(CCCOc3cc(F)c(-c4noc(CO)n4)c(F)c3)CC2)nc1` [Example 17, (3-(4-(3-(1-(5-ethylpyrimidin-2-yl)piperidin-4-yl)propoxy)-2,6-difluorophenyl)-1,2,4-oxadiazol-5-yl)methanol], the Emax at 0.001 µM turned out to be 116% and the Emax at 0.01 µM worked out at 216%.

For `CCc1cnc(N2CCC(CCCOc3cc(F)c(-c4noc(CCO)n4)c(F)c3)CC2)nc1` [Example 18, 2-(3-(4-(3-(1-(5-ethylpyrimidin-2-yl)piperidin-4-yl)propoxy)-2,6-difluorophenyl)-1,2,4-oxadiazol-5-yl)ethan-1-ol], the Emax at 0.001 µM stood at 303% and the Emax at 0.01 µM was determined as 436%.

As for `CCc1cnc(N2CCC(CCCOc3cc(F)c(-c4noc(C[C@@H](C)O)n4)c(F)c3)CC2)nc1` [Example 20, (R)-1-(3-(4-(3-(1-(5-ethylpyrimidin-2-yl)piperidin-4-yl)propoxy)-2,6-difluorophenyl)-1,2,4-oxadiazol-5-yl) propan-2-ol], the Emax at 0.001 µM came to 235% and the Emax at 0.01 µM was 413%.

For `CCc1cnc(N2CCC(CCCOc3cc(F)c(-c4noc(C[C@H](C)O)n4)c(F)c3)CC2)nc1` [Example 21, (S)-1-(3-(4-(3-(1-(5-ethylpyrimidin-2-yl)piperidin-4-yl)propoxyl)-2,6-difluorophenyl)-1,2,4-oxadiazol-5-yl) propan-2-ol], the Emax at 0.001 µM worked out at 160% and the Emax at 0.01 µM worked out at 336%.

Take `COc1cnc(N2CCC(CCCOc3cc(F)c(-c4noc(C(C)C)n4)c(F)c3)CC2)nc1` [Example 26, 3-(2,6-difluoro-4-(3-(1-(5-methoxypyrimidin-2-yl)piperidin-4-yl)propoxy)phenyl)-5-isopropyl-1,2,4-oxadiazole]: the Emax at 0.001 µM turned out to be 67.8% and the Emax at 0.01 µM was 165%.

On to `CC(C)Oc1cnc(N2CCC(CCCOc3cc(F)c(-c4noc(C(C)C)n4)c(F)c3)CC2)nc1` [Example 27, 3-(2,6-difluoro-4-(3-(1-(5-isopropoxypyrimidin-2-yl)piperidin-4-yl)propoxy)phenyl)-5-isopropyl-1,2,4-oxadiazole], for which the Emax at 0.001 µM turned out to be 9.4% and the Emax at 0.01 µM worked out at 123%.

Take `CC(C)c1nc(-c2c(F)cc(OCCCC3CCN(c4ncc(Br)cn4)CC3)cc2F)no1` [Example 29, 3-(4-(3-(1-(5-bromopyrimidin-2-yl)piperidin-4-yl)propoxy)-2,6-difluorophenyl)-5-isopropyl-1,2,4-oxadiazole]: the Emax at 0.001 µM amounted to 75.3% and the Emax at 0.01 µM was 173%.

Regarding `Cc1nc(-c2c(F)cc(OCCCC3CCN(c4ncc(-c5noc(CC(C)C)n5)cn4)CC3)cc2F)no1` [Example 30, 3-(2,6-difluoro-4-(3-(1-(5-(5-isobutyl-1,2,4-oxadiazol-3-yl)pyrimidin-2-yl)piperidin-4-yl)propoxy)phenyl)-5-methyl-1,2,4-oxadiazole], the Emax at 0.001 µM is 103% and the Emax at 0.01 µM amounted to 172%.

In the case of `CCc1nc(-c2c(F)cc(OCCCC3CCN(c4ncc(-c5noc(CC(C)C)n5)cn4)CC3)cc2F)no1` [Example 31, 3-(2,6-difluoro-4-(3-(1-(5-(5-isobutyl-1,2,4-oxadiazol-3-yl)pyrimidin-2-yl)piperidin-4-yl)propoxy)phenyl)-5-ethyl-1,2,4-oxadiazole], the Emax at 0.001 µM amounted to 59.4% and the Emax at 0.01 µM came out at 116%.

In the case of `CC(C)Cc1nc(-c2cnc(N3CCC(CCCOc4cc(F)c(-c5noc(C(C)C)n5)c(F)c4)CC3)nc2)no1` [Example 32, 3-(2,6-difluoro-4-(3-(1-(5-(5-isobutyl-1,2,4-oxadiazol-3-yl)pyrimidin-2-yl)piperidin-4-yl)propoxy)phenyl)-5-isopropyl-1,2,4-oxadiazole], the Emax at 0.001 µM turned out to be 201% and the Emax at 0.01 µM stood at 288%.

Consider `CCC(C)c1nc(-c2c(F)cc(OCCCC3CCN(c4ncc(-c5noc(CC(C)C)n5)cn4)CC3)cc2F)no1` (centres unmarked) [Example 33, 5-(sec-butyl)-3-(2,6-difluoro-4-(3-(1-(5-(5-isobutyl-1,2,4-oxadiazol-3-yl)pyrimidin-2-yl)piperidin-4-yl)propoxy)phenyl)-1,2,4-oxadiazole], for which the Emax at 0.001 µM is 66.8% and the Emax at 0.01 µM was 108%.

Take `COCc1nc(-c2c(F)cc(OCCCC3CCN(c4ncc(-c5noc(CC(C)C)n5)cn4)CC3)cc2F)no1` [Example 34, 3-(2,6-difluoro-4-(3-(1-(5-(5-isobutyl-1,2,4-oxadiazol-3-yl)pyrimidin-2-yl)piperidin-4-yl)propoxy)phenyl)-5-(methoxymethyl)-1,2,4-oxadiazole]: the Emax at 0.001 µM worked out at 82.1% and the Emax at 0.01 µM was 134%.

For `CC[C@H](O)c1nc(-c2c(F)cc(OCCCC3CCN(c4ncc(-c5noc(CC(C)C)n5)cn4)CC3)cc2F)no1` [Example 35, (S)-1-(3-(2,6-difluoro-4-(3-(1-(5-(5-isobutyl-1,2,4-oxadiazol-3-yl)pyrimidin-2-yl)piperidin-4-yl)propoxy)phenyl)-1,2,4-oxadiazol-5-yl) propan-1-ol], the Emax at 0.001 µM came out at 52.5% and the Emax at 0.01 µM turned out to be 118%.
